# Legend:
# basil 'Genovese' = test: Visual injury of basil after insecticide, fungicide, PGRs, safeners (Example 4)
# Procedure: (§1) Greenhouse and laboratory studies were conducted to ascertain the tolerance and nutritional quality differences following postemergence applications of the insecticide chlorpyrifos, the fungicide chlorothalonil, the PGRs mepiquat-chloride and paclobutrazol, and the safeners napthalic anhydride and isoxadifen-ethyl on kale ‘Red Russian’ and basil ‘Genovese’. Visual injury was rated based on general phytotoxicity, chlorosis, and visual stunting and each measurement was based on a percent scale from 0 to 100 where 0 equals no visual response and 100 equals complete plant death. Kale and basil were both harvested approximately 4 weeks after treatments and plants were pooled over replicates for content analysis of crude protein, crude amino acid content, acid detergent fiber, neutral detergent fiber, total fatty acids, and/or key mineral content (including Na, Ca, P, Mg, K, Fe, Mn, Zn, and Cu). In addition, the amounts of key individual amino acids (aspartic acid, threonine, glutamic acid, proline, glycine, cysteine, valine, leucine, isoleucine, methionine, and lysine) and composite classifications of fatty acid (saturated fatty acids, monounsaturated fatty acids, polyunsaturated fatty acids) were also analyzed from these sub-samples for kale (Tables 10-14).
# kale 'Red Russian' = test: Content analysis of kale: protein, amino acids, fiber, fatty acids, minerals (Example 4, Tables 12-14); assay type: in vivo; settings: 28 DA-A; for Alanine, Percent Increase over the Untreated Check (on a % dry matter basis) / Aspartic acid, Percent Increase over the Untreated Check (on a % dry matter basis) / Cysteine, Percent Increase over the Untreated Check (on a % dry matter basis) / Glutamic acid, Percent Increase over the Untreated Check (on a % dry matter basis) / Glycine, Percent Increase over the Untreated Check (on a % dry matter basis) / Iso-leucine, Percent Increase over the Untreated Check (on a % dry matter basis) / Leucine, Percent Increase over the Untreated Check (on a % dry matter basis) / Lysine, Percent Increase over the Untreated Check (on a % dry matter basis) / Methionine, Percent Increase over the Untreated Check (on a % dry matter basis) / Proline, Percent Increase over the Untreated Check (on a % dry matter basis) / Threonine, Percent Increase over the Untreated Check (on a % dry matter basis) / Total Amino acids, Percent Increase over the Untreated Check (on a % dry matter basis) / Total Protein, Percent Increase over the Untreated Check (on a % dry matter basis) / Valine, Percent Increase over the Untreated Check (on a % dry matter basis): chlorothalonil ###
# Procedure: as §1
# [1] = 14 DA-A, rates g ai/ha: chlropyrifos 3370, chlorothalonil 7900, paclobutrazol 9.7, mepiquat-chloride 37, Isoxadifen 16, Napthalic anhydride 527, + NIS 0.25 % v/v
# [2] = 28 DA-A, rates g ai/ha: chlropyrifos 1120, chlorothalonil 2630, paclobutrazol 3.23, mepiquat-chloride 12.3, Isoxadifen 8, Napthalic anhydride 264, + NIS 0.25 % v/v
# [3] = 28 DA-A, rates g ai/ha: chlropyrifos 3370, chlorothalonil 7900, paclobutrazol 9.7, mepiquat-chloride 37, Isoxadifen 16, Napthalic anhydride 527, + NIS 0.25 % v/v
# [4] = first-listed rate g ai/ha: chlropyrifos ###, paclobutrazol 3.2, mepiquat-chloride 12, + NIS 0.3 % v/v
# [5] = rates g ai/ha: chlropyrifos 1120, chlorothalonil 2630, paclobutrazol 3.23, mepiquat-chloride 12.3, + NIS 0.25 % v/v
# [6] = rates g ai/ha: chlropyrifos 3370, chlorothalonil 7900, paclobutrazol 9.7, mepiquat-chloride 37, + NIS 0.25 % v/v
# [7] = second-listed rate g ai/ha: chlropyrifos ###, paclobutrazol 9.7, mepiquat-chloride 37, + NIS 0.3 % v/v
compound,measurement,setting,value
CC(C)(C)[C@@H](O)[C@@H](Cc1ccc(Cl)cc1)n1cncn1 (racemic) [paclobutrazol],Phytotoxicity General,basil 'Genovese'; [1],0%
same,Phytotoxicity Stunting,basil 'Genovese'; [1],5%
same,Phytotoxicity Chlorosis,basil 'Genovese'; [2],3%
same,Phytotoxicity General,basil 'Genovese'; [2],5%
same,Phytotoxicity Stunting,basil 'Genovese'; [2],8%
same,Phytotoxicity Chlorosis,basil 'Genovese'; [3],7%
same,Phytotoxicity General,basil 'Genovese'; [3],2%
same,Phytotoxicity Stunting,basil 'Genovese'; [3],2%
same,"Alanine, Percent Increase over the Untreated Check (on a % dry matter basis)",kale 'Red Russian'; [4],−9 % check
same,"Aspartic acid, Percent Increase over the Untreated Check (on a % dry matter basis)",kale 'Red Russian'; [4],−9 % check
same,"Cysteine, Percent Increase over the Untreated Check (on a % dry matter basis)",kale 'Red Russian'; [4],−6 % check
same,"Glutamic acid, Percent Increase over the Untreated Check (on a % dry matter basis)",kale 'Red Russian'; [4],−5 % check
same,"Glycine, Percent Increase over the Untreated Check (on a % dry matter basis)",kale 'Red Russian'; [4],−12 % check
same,"Iso-leucine, Percent Increase over the Untreated Check (on a % dry matter basis)",kale 'Red Russian'; [4],−6 % check
same,"Leucine, Percent Increase over the Untreated Check (on a % dry matter basis)",kale 'Red Russian'; [4],−7 % check
same,"Lysine, Percent Increase over the Untreated Check (on a % dry matter basis)",kale 'Red Russian'; [4],−8 % check
same,"Methionine, Percent Increase over the Untreated Check (on a % dry matter basis)",kale 'Red Russian'; [4],−13 % check
same,"Proline, Percent Increase over the Untreated Check (on a % dry matter basis)",kale 'Red Russian'; [4],−4 % check
same,"Threonine, Percent Increase over the Untreated Check (on a % dry matter basis)",kale 'Red Russian'; [4],−9 % check
same,"Total Amino acids, Percent Increase over the Untreated Check (on a % dry matter basis)",kale 'Red Russian'; [4],−8 % check
same,"Total Protein, Percent Increase over the Untreated Check (on a % dry matter basis)",kale 'Red Russian'; [4],0 % check
same,"Valine, Percent Increase over the Untreated Check (on a % dry matter basis)",kale 'Red Russian'; [4],−6 % check
same,"ADF, Percent Increase Over the Untreated Check (on a % dry matter basis)",kale 'Red Russian'; [5],11 % check
same,"Calcium, Percent Increase Over the Untreated Check (on a % dry matter basis)",kale 'Red Russian'; [5],11 % check
same,"Copper, Percent Increase Over the Untreated Check (on a % dry matter basis)",kale 'Red Russian'; [5],12 % check
same,"Iron, Percent Increase Over the Untreated Check (on a % dry matter basis)",kale 'Red Russian'; [5],−3 % check
same,"Magnesium, Percent Increase Over the Untreated Check (on a % dry matter basis)",kale 'Red Russian'; [5],8 % check
same,"Manganese, Percent Increase Over the Untreated Check (on a % dry matter basis)",kale 'Red Russian'; [5],10 % check
same,"NDF, Percent Increase Over the Untreated Check (on a % dry matter basis)",kale 'Red Russian'; [5],−3 % check
same,"Phosphorous, Percent Increase Over the Untreated Check (on a % dry matter basis)",kale 'Red Russian'; [5],6 % check
same,"Potassium, Percent Increase Over the Untreated Check (on a % dry matter basis)",kale 'Red Russian'; [5],3 % check
same,"Sodium, Percent Increase Over the Untreated Check (on a % dry matter basis)",kale 'Red Russian'; [5],−1 % check
same,"Zinc, Percent Increase Over the Untreated Check (on a % dry matter basis)",kale 'Red Russian'; [5],11 % check
same,"ADF, Percent Increase Over the Untreated Check (on a % dry matter basis)",kale 'Red Russian'; [6],−1 % check
same,"Calcium, Percent Increase Over the Untreated Check (on a % dry matter basis)",kale 'Red Russian'; [6],22 % check
same,"Copper, Percent Increase Over the Untreated Check (on a % dry matter basis)",kale 'Red Russian'; [6],28 % check
same,"Iron, Percent Increase Over the Untreated Check (on a % dry matter basis)",kale 'Red Russian'; [6],−5 % check
same,"Magnesium, Percent Increase Over the Untreated Check (on a % dry matter basis)",kale 'Red Russian'; [6],11 % check
same,"Manganese, Percent Increase Over the Untreated Check (on a % dry matter basis)",kale 'Red Russian'; [6],20 % check
same,"NDF, Percent Increase Over the Untreated Check (on a % dry matter basis)",kale 'Red Russian'; [6],−8 % check
same,"Phosphorous, Percent Increase Over the Untreated Check (on a % dry matter basis)",kale 'Red Russian'; [6],12 % check
same,"Potassium, Percent Increase Over the Untreated Check (on a % dry matter basis)",kale 'Red Russian'; [6],15 % check
same,"Sodium, Percent Increase Over the Untreated Check (on a % dry matter basis)",kale 'Red Russian'; [6],11 % check
same,"Zinc, Percent Increase Over the Untreated Check (on a % dry matter basis)",kale 'Red Russian'; [6],13 % check
same,"Alanine, Percent Increase over the Untreated Check (on a % dry matter basis)",kale 'Red Russian'; [7],4 % check
same,"Aspartic acid, Percent Increase over the Untreated Check (on a % dry matter basis)",kale 'Red Russian'; [7],12 % check
same,"Cysteine, Percent Increase over the Untreated Check (on a % dry matter basis)",kale 'Red Russian'; [7],6 % check
same,"Glutamic acid, Percent Increase over the Untreated Check (on a % dry matter basis)",kale 'Red Russian'; [7],16 % check
same,"Glycine, Percent Increase over the Untreated Check (on a % dry matter basis)",kale 'Red Russian'; [7],3 % check
same,"Iso-leucine, Percent Increase over the Untreated Check (on a % dry matter basis)",kale 'Red Russian'; [7],6 % check
same,"Leucine, Percent Increase over the Untreated Check (on a % dry matter basis)",kale 'Red Russian'; [7],5 % check
same,"Lysine, Percent Increase over the Untreated Check (on a % dry matter basis)",kale 'Red Russian'; [7],14 % check
same,"Methionine, Percent Increase over the Untreated Check (on a % dry matter basis)",kale 'Red Russian'; [7],2 % check
same,"Proline, Percent Increase over the Untreated Check (on a % dry matter basis)",kale 'Red Russian'; [7],7 % check
same,"Threonine, Percent Increase over the Untreated Check (on a % dry matter basis)",kale 'Red Russian'; [7],4 % check
same,"Total Amino acids, Percent Increase over the Untreated Check (on a % dry matter basis)",kale 'Red Russian'; [7],9 % check
same,"Total Protein, Percent Increase over the Untreated Check (on a % dry matter basis)",kale 'Red Russian'; [7],13 % check
same,"Valine, Percent Increase over the Untreated Check (on a % dry matter basis)",kale 'Red Russian'; [7],6 % check
